Literature values as cited in patent US7364752B1, “Solid dispersion pharamaceutical formulations” (Abbott Laboratories, priority 1999, dated 2008).

Details: PEG solid dispersion formulation

In the case of `O=C1N(Cc2ccc(CO)cc2)[C@H](Cc2ccccc2)[C@H](O)[C@@H](O)[C@@H](Cc2ccccc2)N1Cc1ccc(CO)cc1` [DMP 323], the bioavailability is listed as “unable to improve the bioavailability”.
